According to publication PMC3424541 (2012):
pIC50: −log10 of the molar value.

Target: T1, HsRAD51 (Homo sapiens, UniProt Q06609)
T1 sequence (Q06609 2-339): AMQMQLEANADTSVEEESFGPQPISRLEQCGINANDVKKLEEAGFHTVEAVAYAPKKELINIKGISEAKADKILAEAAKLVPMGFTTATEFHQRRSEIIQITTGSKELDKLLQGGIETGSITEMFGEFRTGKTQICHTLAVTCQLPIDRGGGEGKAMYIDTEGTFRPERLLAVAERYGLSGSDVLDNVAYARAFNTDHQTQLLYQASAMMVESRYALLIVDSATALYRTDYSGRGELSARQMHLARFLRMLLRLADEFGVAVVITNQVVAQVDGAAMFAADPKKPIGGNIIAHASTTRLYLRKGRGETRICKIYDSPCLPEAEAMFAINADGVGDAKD
Test: LC-MS/MS of the covalent adduct at C319
Assay type: binding

With O=C1C(Cl)=C(N2CCOCC2)C(=O)N1c1ccc(Cl)c(Cl)c1 [RI-1, 3-chloro-1-(3,4-dichlorophenyl)-4-(4-morpholinyl)-1H-pyrrole-2,5-dione] as the compound, how does the pIC50 read?
The pIC50 was 4.52 to 5.30.
